Assay results published in patent US5939094A (priority 1996, dated 1999).
Like-named read-outs stand apart in the source and are kept apart here.

Key:
Parkinson's disease = conditions: chronic oral levodopa, after initial 3-6 years; cited from earlier work
[1] = emulsions with apomorphine HCl and acrylic acid polymer gels, pH 7.6
[2] = Description: Human skin samples were obtained from white female patients undergoing breast reduction surgery and prepared for in vitro permeation studies. Samples were stratum corneum from breasts of patients (Sample A) and (Samples B & C). A 2.0 cm^2 section of the skin tissue was placed in a Franz cell holder and maintained under phosphate buffered saline (PBS: 0.01M phosphate, 0.9% NaCl, pH 6.0) until testing. PBS (6.8 to 7.3 ml) was placed on the receptor side of the Franz cell. […] The cell was incubated at 35±1° C. A 250 μl sample was taken from the receptor medium at the following times: 0, 1/2, 1, 2, 4, and 6 hours. An equal volume of PBS was replaced each time a sample was withdrawn.
Samples were pre-filtered (0.45 μm) prior to injection. Samples (50 μl) were injected on an Altima (Alltech Associates) C18 column (15 cm×4.3 mm) with guard column. The mobile phase consisted of a 60:40 mixture of 5 mM sodium dodecylsulfate in 1 mM NH4 PO4 buffer, pH 3.0 and acetonitrile.

skin = conditions: rabbit, in vivo, 0.5 mg/kg
[3] = rabbit
[4] = man, cited from earlier work
[5] = administered in a cream; cited from earlier work
[6] = cited from earlier work
in vivo = conditions: rabbit, 0.5 mg/kg; for AUC: AUC (area under the concentration vs time curve); for MRT: MRT (mean residence time)
[7] = in vivo, topical or ocular, 0.5 mg/kg
[8] = subcutaneous, 0.5 mg/kg, n=6, mean
[9] = sc, model-dependent, subcutaneous, n=6, mean
[10] = topical or ocular, model-independent

Structure (SMILES): N[C@@H](Cc1ccc(O)c(O)c1)C(=O)O [levodopa]
- patients with movement abnormalities (Parkinson's disease): 40-60 % of patients

Structure (SMILES): N[C@@H](CCC(=O)N[C@@H](CS)C(=O)NCC(=O)O)C(=O)O [glutathione]
- antioxidant suitability for apomorphine HCl emulsions and gels [1]: acceptable antioxidant

Structure (SMILES): CN1CCc2cccc3c2[C@H]1Cc1ccc(O)c(O)c1-3 [Apomorphine, apomorphine]
- FLUX, AVERAGE [2]: 1.61 μg/cm^2 /hr
- In vitro transdermal permeation, TIME 0 hours [2]: 0
- In vitro transdermal permeation, TIME 0 hours, AVERAGE [2]: 0
- In vitro transdermal permeation, TIME 0.5 hours, AVERAGE [2]: 0.44
- In vitro transdermal permeation, TIME 1 hour, AVERAGE [2]: 2.05
- In vitro transdermal permeation, TIME 2 hours, AVERAGE [2]: 2.93
- In vitro transdermal permeation, TIME 4 hours, AVERAGE [2]: 7.03
- In vitro transdermal permeation, TIME 6 hours, AVERAGE [2]: 6.30
- local adverse effect (skin): No local adverse effect
- Time for absorption of 10% of the drug ([3]; in vivo): 11.4 ± 3.4 min
- Time for absorption of 50% of the drug ([3]; in vivo): 105.7 ± 23.9 min
- absorption of the drug after percutaneous administration ([3]; in vivo, 0.5 mg/kg): absorption of the drug in all tested animals
- bioequivalence (F) of percutaneous route vs subcutaneous administration ([3]; in vivo, 0.5 mg/kg): 35%
- duration of the first, rapid absorption phase ([3]; in vivo, 0.5 mg/kg): 1 h
- plasma concentration between the fourth and the fifth hour ([3]; in vivo, 0.5 mg/kg): an increase in the plasma concentration
- plasma levels after removal of the gel ([3]; in vivo, 0.5 mg/kg): decreased
- time until which absorption persisted ([3]; in vivo, 0.5 mg/kg): 450 min
- Time for absorption of 10% of the drug ([3]; in vivo, sc): 4.0 ± 0.7 min
- Time for absorption of 50% of the drug ([3]; in vivo, sc): 19.9 ± 2.9 min
- absorption of the available amount of the drug after 150 minutes ([3]; in vivo, sc, 0.5 mg/kg): practically complete
- k12 (transfer rate constant) ([3]; in vivo, sc, 0.5 mg/kg): 0.005 L/min
- k13 (transfer rate constant) ([3]; in vivo, sc, 0.5 mg/kg): 0.057 L/min
- k21 (transfer rate constant) ([3]; in vivo, sc, 0.5 mg/kg): 0.027 L/min
- ka (exponent of the fitted function) ([3]; in vivo, sc, 0.5 mg/kg): 0.088 L/min
- tmax (time to peak plasma concentration) ([3]; in vivo, sc, 0.5 mg/kg): 25.8 ± 4.9 min
- α (exponent of the fitted function) ([3]; in vivo, sc, 0.5 mg/kg): 0.044 L/min
- plasma level plateau [3, 7]: 10 to 15 ng/mL
- stable mean plasma level after the second hour [3, 7]: 10 ng/mL
- tmax (time to peak plasma concentration) [3, 7]: 29.4 ± 7.8 min
- Cl, comparison of routes ([3]; subcutaneous vs percutaneous, 0.5 mg/kg): not different between the two routes
- A (coefficient of the fitted function) [3, 8]: 712 ng/mL
- B (coefficient of the fitted function) [3, 8]: 298 ng/mL
- C0 (coefficient of the fitted function) [3, 8]: 1,010 ng/ml
- Vd (mean) ([4]; i.v. injection): 2 L/kg
- Vd (mean) ([4]; subcutaneous injection): 2 L/kg
- tmax (range) ([4]; subcutaneous injection): 7 to 16 min
- plasma levels of apomorphine [5]: No detectable plasma levels
- duration of action ([6]; Parkinson's disease, movement disorders): short duration of action
- adverse effects of oral or sublingual administration ([6]; oral or sublingual): stomatitis, and the development of buccal ulcers
- breakdown in the liver ([6]; oral or sublingual): breakdown of the drug in the liver
- CL/F (in vivo; sc): 31 ± 5 mL/min/kg
- Cmax (in vivo; sc): 331 ± 46 ng/mL
- Tmax (in vivo; sc): 25.8 min
- concentration at 4 h (in vivo; sc): 3 ± 1 ng/mL
- k el (in vivo; sc): 0.00035 s⁻¹
- AUC (in vivo; [9]): 309 ng·h/mL
- AUC (in vivo; sc, model-independent): 297 ng·h/mL
- MRT (in vivo; [9]): 52 min
- MRT (in vivo; sc, model-independent): 50 min
- Vd/F (in vivo; sc, Vd (apparent volume of distribution)): 1.45 ± 0.12 L/kg
- Vd/F (in vivo; sc, Vdss, model-dependent): 1.1 ± 0.3 L/kg
- CL/F (in vivo; topical or ocular): 37 ± 1 mL/min/kg
- Cmax (in vivo; topical or ocular): 56 ± 12 ng/mL
- Tmax (in vivo; topical or ocular): 29.4 min
- k el (in vivo; topical or ocular): 0.000233 s⁻¹
- AUC (in vivo; [10]): 104 ng·h/mL
- MRT (in vivo; [10]): 168 min
- Vd/F (in vivo; topical or ocular, Vd (apparent volume of distribution)): 2.72 ± 0.36 L/kg
